Experiments:
[1] = molecular target: Rho-associated protein kinase 2 (Homo sapiens) (UniProt O75116); experiment: Inhibition of human ROCK2 catalytic domain expressed in baculovirus assessed as substrate phosphorylation using fluorescence-labelled peptides as substrate at 95 uM after 90 mins by microfluidic peptide phosphorylation assay
[2] = molecular target: T1, Serine/threonine-protein kinase D2 (Homo sapiens) (UniProt Q9BZL6); experiment: Inhibition of human full length PKD2 expressed in baculovirus assessed as substrate phosphorylation using fluorescence-labelled peptides as substrate at 2 uM after 90 mins by microfluidic peptide phosphorylation assay
T1 sequence (whole entry): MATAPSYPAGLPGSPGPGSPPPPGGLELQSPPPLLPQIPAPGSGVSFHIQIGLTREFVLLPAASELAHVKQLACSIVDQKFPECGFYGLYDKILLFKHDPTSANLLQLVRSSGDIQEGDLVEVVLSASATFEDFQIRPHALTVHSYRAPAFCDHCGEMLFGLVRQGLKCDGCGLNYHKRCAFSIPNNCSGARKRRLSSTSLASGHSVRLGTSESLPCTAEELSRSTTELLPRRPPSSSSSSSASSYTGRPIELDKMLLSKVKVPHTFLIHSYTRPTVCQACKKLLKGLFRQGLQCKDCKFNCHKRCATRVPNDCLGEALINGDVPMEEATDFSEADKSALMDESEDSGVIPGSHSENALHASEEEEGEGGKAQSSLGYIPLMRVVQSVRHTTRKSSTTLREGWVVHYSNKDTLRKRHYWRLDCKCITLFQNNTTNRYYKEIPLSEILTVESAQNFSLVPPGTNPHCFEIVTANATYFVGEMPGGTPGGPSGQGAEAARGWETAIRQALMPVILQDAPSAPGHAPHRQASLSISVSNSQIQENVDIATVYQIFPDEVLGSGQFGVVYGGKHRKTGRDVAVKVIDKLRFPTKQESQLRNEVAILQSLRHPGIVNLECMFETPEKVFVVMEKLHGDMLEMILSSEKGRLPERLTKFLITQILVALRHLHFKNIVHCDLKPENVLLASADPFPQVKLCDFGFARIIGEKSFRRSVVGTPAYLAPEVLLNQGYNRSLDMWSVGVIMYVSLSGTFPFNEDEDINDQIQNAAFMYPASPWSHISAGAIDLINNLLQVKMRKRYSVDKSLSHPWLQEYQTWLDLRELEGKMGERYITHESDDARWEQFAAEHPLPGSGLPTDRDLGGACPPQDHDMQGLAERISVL

[3] = molecular target: T2, Aurora kinase A (Homo sapiens) (UniProt O14965); experiment: Inhibition of human full length AurA expressed in baculovirus assessed as substrate phosphorylation using fluorescence-labelled peptides as substrate at 1000 uM after 90 mins by microfluidic peptide phosphorylation assay
T2 sequence (whole entry): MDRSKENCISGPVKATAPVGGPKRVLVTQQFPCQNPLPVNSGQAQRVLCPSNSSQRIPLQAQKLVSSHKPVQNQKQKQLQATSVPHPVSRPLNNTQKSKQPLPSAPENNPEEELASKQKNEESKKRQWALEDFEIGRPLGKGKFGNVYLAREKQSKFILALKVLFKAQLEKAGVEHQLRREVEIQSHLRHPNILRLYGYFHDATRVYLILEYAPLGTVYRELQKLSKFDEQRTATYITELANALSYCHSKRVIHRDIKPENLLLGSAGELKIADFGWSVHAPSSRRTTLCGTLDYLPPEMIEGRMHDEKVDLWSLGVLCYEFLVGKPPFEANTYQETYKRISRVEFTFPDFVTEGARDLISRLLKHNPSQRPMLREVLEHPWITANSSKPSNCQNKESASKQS

[4] = molecular target: Calcium/calmodulin-dependent protein kinase type II subunit gamma (Homo sapiens) (UniProt Q13555); details: 0.1 uM
Description: Inhibition of human CAMK2 gamma catalytic domain expressed in baculovirus assessed as substrate phosphorylation using fluorescence-labelled peptides as substrate at 0.1 uM after 90 mins by microfluidic peptide phosphorylation assay

[5] = test system: Tyrosine-protein kinase ABL1 (Homo sapiens), P00519 [H396P]; experiment: Inhibition of human truncated ABL H396P mutant expressed in baculovirus assessed as substrate phosphorylation using fluorescence-labelled peptides as substrate at 420 uM after 90 mins by microfluidic peptide phosphorylation assay
[6] = molecular target: T1, Serine/threonine-protein kinase D2 (Homo sapiens); experiment: Inhibition of human full length PKD2 expressed in baculovirus assessed as substrate phosphorylation using fluorescence-labelled peptides as substrate at 420 uM after 90 mins by microfluidic peptide phosphorylation assay
[7] = molecular target: T3, Serine/threonine-protein kinase Chk1 (Homo sapiens) (UniProt O14757); experiment: Inhibition of human full length CHK1 expressed in baculovirus assessed as substrate phosphorylation using fluorescence-labelled peptides as substrate at 420 uM after 90 mins by microfluidic peptide phosphorylation assay
T3 sequence (whole entry): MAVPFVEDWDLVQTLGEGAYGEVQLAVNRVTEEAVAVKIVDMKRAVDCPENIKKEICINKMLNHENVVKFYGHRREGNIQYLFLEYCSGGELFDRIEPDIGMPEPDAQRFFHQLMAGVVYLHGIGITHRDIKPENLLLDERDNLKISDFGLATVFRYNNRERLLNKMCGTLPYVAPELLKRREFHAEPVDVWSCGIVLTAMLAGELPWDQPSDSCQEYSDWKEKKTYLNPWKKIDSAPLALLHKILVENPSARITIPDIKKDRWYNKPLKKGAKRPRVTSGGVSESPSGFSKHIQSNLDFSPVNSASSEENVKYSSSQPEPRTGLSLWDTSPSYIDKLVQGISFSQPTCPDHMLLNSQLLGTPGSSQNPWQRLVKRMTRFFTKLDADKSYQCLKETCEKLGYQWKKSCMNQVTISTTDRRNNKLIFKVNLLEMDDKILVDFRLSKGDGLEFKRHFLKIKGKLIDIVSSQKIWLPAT

[8] = molecular target: T4, Protein kinase C zeta type (Homo sapiens) (UniProt Q05513); experiment: Inhibition of human full length PKC zeta expressed in baculovirus assessed as substrate phosphorylation using fluorescence-labelled peptides as substrate at 9 uM after 90 mins by microfluidic peptide phosphorylation assay
T4 sequence (whole entry): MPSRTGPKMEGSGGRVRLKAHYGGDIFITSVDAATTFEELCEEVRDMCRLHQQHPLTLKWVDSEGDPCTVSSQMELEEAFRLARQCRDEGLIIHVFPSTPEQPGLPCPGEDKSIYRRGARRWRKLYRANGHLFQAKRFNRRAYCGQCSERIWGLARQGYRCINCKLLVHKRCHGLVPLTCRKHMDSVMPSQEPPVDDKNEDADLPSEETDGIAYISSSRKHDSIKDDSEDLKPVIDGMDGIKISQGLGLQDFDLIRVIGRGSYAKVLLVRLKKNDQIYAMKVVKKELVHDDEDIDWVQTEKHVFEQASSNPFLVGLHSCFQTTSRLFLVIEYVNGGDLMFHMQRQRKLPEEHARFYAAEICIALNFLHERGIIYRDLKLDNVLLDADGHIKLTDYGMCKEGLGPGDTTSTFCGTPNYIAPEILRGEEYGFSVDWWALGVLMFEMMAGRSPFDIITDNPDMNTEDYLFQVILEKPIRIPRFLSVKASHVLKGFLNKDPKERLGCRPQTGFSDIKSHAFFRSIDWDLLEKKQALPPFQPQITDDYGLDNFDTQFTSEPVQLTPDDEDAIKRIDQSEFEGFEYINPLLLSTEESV

Chain of Rho-associated protein kinase 2 (Homo sapiens) (O75116 whole entry, looked up, the tested form may be a part): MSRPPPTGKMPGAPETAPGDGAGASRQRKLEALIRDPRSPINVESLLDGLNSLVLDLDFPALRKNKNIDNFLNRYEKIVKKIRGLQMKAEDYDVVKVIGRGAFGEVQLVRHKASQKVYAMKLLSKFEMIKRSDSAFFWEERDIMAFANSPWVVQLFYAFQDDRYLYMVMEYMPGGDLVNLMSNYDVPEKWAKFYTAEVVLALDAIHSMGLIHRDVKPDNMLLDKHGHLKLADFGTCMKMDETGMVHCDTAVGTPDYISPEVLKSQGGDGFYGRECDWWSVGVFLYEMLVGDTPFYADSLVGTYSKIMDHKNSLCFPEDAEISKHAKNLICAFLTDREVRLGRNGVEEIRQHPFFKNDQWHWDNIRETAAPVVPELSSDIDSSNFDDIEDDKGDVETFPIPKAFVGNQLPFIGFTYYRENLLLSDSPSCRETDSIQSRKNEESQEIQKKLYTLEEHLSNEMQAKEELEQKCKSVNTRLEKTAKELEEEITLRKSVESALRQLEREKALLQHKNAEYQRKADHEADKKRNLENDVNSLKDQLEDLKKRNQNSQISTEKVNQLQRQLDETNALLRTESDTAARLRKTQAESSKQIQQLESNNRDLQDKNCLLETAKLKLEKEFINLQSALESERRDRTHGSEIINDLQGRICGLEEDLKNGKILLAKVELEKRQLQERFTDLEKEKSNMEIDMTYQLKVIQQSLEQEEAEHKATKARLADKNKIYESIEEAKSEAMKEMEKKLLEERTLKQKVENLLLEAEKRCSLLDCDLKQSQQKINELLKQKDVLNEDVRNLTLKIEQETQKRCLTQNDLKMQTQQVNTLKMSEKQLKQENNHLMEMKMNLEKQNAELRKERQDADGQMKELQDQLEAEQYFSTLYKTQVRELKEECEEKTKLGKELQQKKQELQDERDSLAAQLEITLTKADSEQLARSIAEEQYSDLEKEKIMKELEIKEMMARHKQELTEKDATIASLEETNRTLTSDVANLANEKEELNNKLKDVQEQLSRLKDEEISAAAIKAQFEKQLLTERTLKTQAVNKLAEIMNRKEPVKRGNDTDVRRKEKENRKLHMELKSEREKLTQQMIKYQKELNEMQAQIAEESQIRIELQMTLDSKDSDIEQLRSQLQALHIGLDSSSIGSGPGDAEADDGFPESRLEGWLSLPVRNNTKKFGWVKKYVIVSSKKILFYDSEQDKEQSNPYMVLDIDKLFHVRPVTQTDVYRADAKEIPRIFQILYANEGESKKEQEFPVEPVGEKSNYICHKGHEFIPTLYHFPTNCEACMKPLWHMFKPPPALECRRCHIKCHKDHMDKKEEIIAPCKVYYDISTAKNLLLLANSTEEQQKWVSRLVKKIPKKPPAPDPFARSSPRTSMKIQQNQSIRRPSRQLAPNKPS
Chain of Calcium/calmodulin-dependent protein kinase type II subunit gamma (Homo sapiens) (Q13555 whole entry, the tested form may be a part): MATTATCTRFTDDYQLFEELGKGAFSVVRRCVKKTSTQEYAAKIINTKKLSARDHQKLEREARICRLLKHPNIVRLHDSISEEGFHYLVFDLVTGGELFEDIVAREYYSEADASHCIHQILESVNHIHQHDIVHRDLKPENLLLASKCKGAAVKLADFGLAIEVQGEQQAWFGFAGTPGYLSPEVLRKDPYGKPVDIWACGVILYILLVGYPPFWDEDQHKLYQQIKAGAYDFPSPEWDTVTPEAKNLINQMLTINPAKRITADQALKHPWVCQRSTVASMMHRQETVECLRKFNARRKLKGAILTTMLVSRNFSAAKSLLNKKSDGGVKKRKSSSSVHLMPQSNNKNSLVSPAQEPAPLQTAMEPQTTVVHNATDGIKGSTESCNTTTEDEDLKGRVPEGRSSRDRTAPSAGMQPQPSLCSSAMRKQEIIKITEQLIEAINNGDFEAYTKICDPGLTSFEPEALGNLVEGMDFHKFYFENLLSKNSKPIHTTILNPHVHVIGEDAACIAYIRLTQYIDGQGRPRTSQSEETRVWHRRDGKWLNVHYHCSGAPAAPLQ

Compound: NCCc1ccc(-c2ncnc3[nH]cnc23)cc1
- inhibition [1]: 93.5%

Compound: NC1CCN(c2ncnc3[nH]ccc23)CC1
- inhibition [2]: 6.5%

Compound: c1cnc2[nH]ccc2c1
- inhibition [3]: 88%

Compound: C[C@H](CN(C)C)Oc1nc(Nc2cc3cccc(Cl)c3cn2)cnc1C#N
- inhibition [4]: 0%

Compound: c1nc(N2CCOCC2)c2nc[nH]c2n1
- inhibition [5]: 71%
- inhibition [6]: 70%
- inhibition [7]: 88.5%

Compound: NCC1CN(c2ncnc3[nH]c4cnccc4c23)CCO1 (stereo not drawn)
- inhibition [8]: 22%
